Assay results published in patent publication US7166570B2, “Medical implants and fibrosis-inducing agents” (Angiotech International AG, priority 2003, dated 2007).

Tests used:
Assay in all cases: MIC determination by microtitre broth dilution
Assay type in all cases: cell-based
S. epidermidis C621 wt = settings: Gram+, Mueller Hinton broth, 37° C., 24 h, aerobic, N = No activity
Experimental: (§1) MIC assays were conducted essentially as described by Amsterdam, D. 1996, “Susceptibility testing of antimicrobials in liquid media,” p. 52–111. In Loman, V., ed. Antibiotics in laboratory medicine, 4th ed. Williams and Wilkins, Baltimore, Md.

[1] = system: P. aeruginosa PAE/K799 H187 Wt; settings: Gram−, Mueller Hinton broth, 37° C., 24 h, aerobic, N = No activity
Experimental: as §1

S. pyogenes C721 wt = settings: Gram+, Todd Hewitt broth, 37° C., 24 h, aerobic, N = No activity
Experimental: as §1

[2] = system: S. aureus ATCC25923 C622 wt; settings: Gram+, Mueller Hinton broth, 37° C., 24 h, aerobic, N = No activity
Experimental: as §1

[3] = system: K. pneumoniae ATCC13883 C238 wt; settings: Gram−, Mueller Hinton broth, 37° C., 24 h, aerobic, N = No activity
Experimental: as §1

E. coli UB1005 C498 wt = settings: Gram−, Mueller Hinton broth, 37° C., 24 h, aerobic, N = No activity
Experimental: as §1

| SMILES | Minimum inhibitory concentration (MIC) (S. epidermidis C621 wt) | Minimum inhibitory concentration (MIC) [1] | Minimum inhibitory concentration (MIC) (S. pyogenes C721 wt) | Minimum inhibitory concentration (MIC) [2] | Minimum inhibitory concentration (MIC) [3] | Minimum inhibitory concentration (MIC) (E. coli UB1005 C498 wt) |
| --- | --- | --- | --- | --- | --- | --- |
| CN(Cc1cnc2nc(N)nc(N)c2n1)c1ccc(C(=O)N[C@@H](CCC(=O)O)C(=O)O)cc1 [Methotrexate] | N | N | 10^−6 Molar | 10^−5 Molar | 10^−6 Molar | N |
| Nc1ncnc2c1ccn2[C@@H]1O[C@H](CO)[C@@H](O)[C@H]1O [tubercidin] | N | N | N | N | N | N |
| CC[C@@]1(O)C(=O)OCc2c1cc1n(c2=O)Cc2cc3ccccc3nc2-1 [Camptothecin] | 10^−4 Molar | N | N | N | N | N |
| O=c1[nH]cc(F)c(=O)[nH]1 [5-Fluorouracil] | 10^−7 Molar | 10^−5 Molar | 10^−4 Molar | 10^−7 Molar | 10^−6 Molar | 10^−6 Molar |
| NC(=O)NO [hydroxyurea] | N | 10^−4 Molar | 10^−4 Molar | N | N | N |
| COc1cc([C@@H]2c3cc4c(cc3[C@@H](O[C@@H]3O[C@@H]5CO[C@@H](C)O[C@H]5[C@H](O)[C@H]3O)[C@H]3COC(=O)[C@H]23)OCO4)cc(OC)c1O [etoposide] | 10^−6 Molar | N | 10^−5 Molar | 10^−5 Molar | 10^−5 Molar | N |
| Sc1ncnc2nc[nH]c12 [6-mercaptopurine] | N | N | N | N | N | N |
| Sc1ncc2[nH]cnc2n1 [2-mercaptopurine] | N | N | N | N | N | N |
| COc1cccc2c1C(=O)c1c(O)c3c(c(O)c1C2=O)C[C@@](O)(C(=O)CO)C[C@@H]3O[C@H]1C[C@H](N)[C@H](O)[C@H](C)O1 [Doxorubicin] | 10^−6 Molar | 10^−5 Molar | 10^−7 Molar | 10^−5 Molar | 10^−6 Molar | 10^−4 Molar |
| O=C1c2c(O)ccc(O)c2C(=O)c2c(NCCNCCO)ccc(NCCNCCO)c21 [mitoxantrone] | 10^−5 Molar | 10^−5 Molar | 10^−6 Molar | 10^−5 Molar | 10^−6 Molar | 10^−5 Molar |
| Nc1ccn([C@@H]2O[C@H](CO)[C@@H](O)[C@@H]2O)c(=O)n1 [Cytarabine] | N | N | N | N | N | N |
